Our source for the IC50 values is US6638531B1, “Antimicrobial peptides” (priority 1998, dated 2003).

The IC50 is the concentration at which inhibition is half-maximal.

Values after ≈ are worked out from the molar mass of the structure shown.

For assay [1], the system named is Candida albicans 32354, ergosterol-deficient mutant. The assay is described as follows: Killing of yeasts. It is filed as cell-based. Particulars: pH 7, read-out: IC50 values (50% of the inoculum is killed). On the procedure: (§1) 5*10^6 cells of Candida pseudotropicalis, Candida albicans 10231, Cryptococcus neoformans, Candida krusei, Candida parapsilosis, Candida glabrata and Candida albicans 32354 and an ergosterol-deficient mutant thereof were incubated for one and a half hours at 37° C. in the presence of a dilution series of a peptide according to the invention or amphotericin B in 1 mM potassium phosphate buffer, pH 7.0. The viability was determined by plating out. Used as positive control was synthetic PGLa (“Protein beginning with Glycine and ending with Leucin-amide”, with the amino acid sequence […]-amide).

The subject of another assay is Candida parapsilosis. The assay is described as follows: microbe, parasite or virus in culture. Particulars: Lodderomyces parapsilosis, pH 7, read-out: IC50 values (50% of the inoculum is killed). How it is done: as §1
In the next assay the test system is Candida albicans 10231. The assay is described as follows: microbe, parasite or virus in culture. As to conditions: Candida albicans, 10231, pH 7, read-out: IC50 values (50% of the inoculum is killed). How it is done:
as §1

A further assay deals with Candida pseudotropicalis. Kind of assay: microbe, parasite or virus in culture. As to conditions: Kluyveromyces marxianus, pH 7, read-out: IC50 values (50% of the inoculum is killed). On the procedure: as §1
For another assay, the system named is Candida albicans 32354. The assay is described as follows: microbe, parasite or virus in culture. As to conditions: Candida albicans, 32354, pH 7, read-out: IC50 values (50% of the inoculum is killed). On the procedure:
as §1

The next assay concerns Candida glabrata. Kind of assay: microbe, parasite or virus in culture. Particulars: Nakaseomyces glabratus, pH 7, read-out: IC50 values (50% of the inoculum is killed). On the procedure:
as §1

The next assay has as its system Cryptococcus neoformans. The assay is described as follows: microbe, parasite or virus in culture. Particulars: Cryptococcus neoformans, pH 7, read-out: IC50 values (50% of the inoculum is killed). How it is done: as §1
For the next assay, the system named is Candida krusei. Kind of assay: microbe, parasite or virus in culture. Particulars: Pichia kudriavzevii, pH 7, read-out: IC50 values (50% of the inoculum is killed). On the procedure: as §1

With `C[C@@H]1[C@H](O)[C@@H](C)/C=C/C=C/C=C/C=C/C=C/C=C/C=C/[C@H](O[C@@H]2O[C@H](C)[C@@H](O)[C@H](N)[C@@H]2O)C[C@@H]2O[C@](O)(C[C@@H](O)C[C@@H](O)[C@H](O)CC[C@@H](O)C[C@@H](O)CC(=O)O[C@H]1C)C[C@H](O)[C@H]2C(=O)O` [amphotericin B], the IC50 is over 70 mg/L in assay [1]; 6 mg/L (≈ 6.49 µM) in the assay on Candida parapsilosis; 1 mg/L (≈ 1.08 µM) with Candida albicans 10231; 8 mg/L (≈ 8.66 µM) in the assay with Candida pseudotropicalis; 2 mg/L (≈ 2.16 µM) in the assay with Candida albicans 32354; 2 mg/L (≈ 2.16 µM) in the assay on Candida glabrata. The IC50 in the assay with Cryptococcus neoformans was 1 mg/L (≈ 1.08 µM); in the assay on Candida krusei, over 70 mg/L.
